One data set relates to TNF-α production. Description: Inhibitory effects on TNF-α production induced by lipopolysaccharide (LPS) stimulation, in vivo test. On the set-up: species or system rat. Particulars: female rats, plasma TNF-α (ELISA) two hours after LPS; for inhibition in vivo at 3 mg/kg / inhibition in vivo at 10 mg/kg: Rattus norvegicus, 2 h, read-out: Inhibition rate (%) of TNF-α production; for inhibition in vivo at 3 mg/kg / Inhibition rate (%) of TNF-α production: oral administration of 3 mg/kg immediately after LPS to footpad; for inhibition in vivo at 10 mg/kg: oral administration of 10 mg/kg immediately after LPS to footpad. Here is the method:
Inhibitory effects on TNF-α production induced by lipopolysaccharide (LPS) stimulation were studied by in vivo tests according to the method of Tsuji et al. (Inflamm res. 46 (1997) 193-198).
Female rats (five per group), body weight of about 200 g, about eight weeks old, were used as test animals. LPS from Salmonella was dissolved in physiological saline to prepare an LPS solution (1 mg/ml). Each test substance was dissolved or uniformly suspended in a 1% methylcellulose solution to give test substance-preparation liquids.
The above-mentioned LPS solution (0.5 ml/kg) was administered to a footpad of the rat. Immediately after the LPS administration, the test substance-preparation liquid (containing 10 mg/kg or 3 mg/kg test substance) was orally administered. Two hours after the LPS administration, blood was collected from abdominal aorta and was centrifuged at 4° C. and 3000 rpm for ten minutes. TNF-α levels in the obtained plasma were measured with a rat TNF-α-specific ELISA kit. TNF-α was not observed in the plasma with respect to an LPS-non-administered group (control).
Inhibition rates of TNF-α production of the test substances were determined by the following equation. Inhibition rate (%)=[(A−B)/A]×100 A: TNF-α level in plasma of test substance-nonadministered group B: TNF-α level in plasma of test substance-administered group (Results)
A general note: An ELISA detects its analyte on a solid surface through an enzyme-linked reagent.

The structures appear in SMILES notation.

Consider `CCCCCN(CCC12CC3CC(CC(C3)C1)C2)C(=O)NC[C@@H]1C[C@@H]1c1ccncc1` (relative stereo) [Compound No. 15-1, cis 1-[2-(1-Adamantyl)ethyl]-1-pentyl-3-[2-(4-pyridyl)cyclopropylmethyl]urea], for which the inhibition in vivo at 3 mg/kg in the data set on TNF-α production stood at 73.8%. As to `CCCCCN(CCC12CC3CC(CC(C3)C1)C2)C(=O)NCC(C)Cc1ccncc1` (single isomer, unassigned; (-)) [Compound No. 1-120, (−)-1-[2-(1-Adamantyl)ethyl]-3-[2-methyl-3-(4-pyridyl)propyl]-1-pentylurea], the inhibition in vivo at 10 mg/kg in the data set with TNF-α production was found to be 95.1%. `CCCCCN(CCC12CC3CC(CC(C3)C1)C2)C(=O)NCCCc1ccncc1` [Compound No. 1-1, 1-[2-(1-Adamantyl)ethyl]-1-pentyl-3-[3-(4-pyridyl)propyl]urea]: the inhibition in vivo at 10 mg/kg in the data set with TNF-α production amounted to 92.1%. Take `CCCCN(CCCC)C(=O)NCCCc1ccncc1` [Compound No. 1-10, 1,1-Dibutyl-3-[3-(4-pyridyl)propyl]urea]: the inhibition in vivo at 3 mg/kg in the data set with TNF-α production turned out to be 63%. Turning to `N#CCN(CCC12CC3CC(CC(C3)C1)C2)C(=O)NCCCc1ccncc1` [Compound No. 1-20, 1-[2-(1-Adamantyl)ethyl]-1-cyanomethyl-3-[3-(4-pyridyl)propyl]urea], the inhibition in vivo at 10 mg/kg in the data set with TNF-α production stood at 60%.

As for `CN(CCN(CCC12CC3CC(CC(C3)C1)C2)C(=O)NCCCc1ccncc1)C(=O)OC(C)(C)C` [Compound No. 1-26, 1-[2-(1-Adamantyl)ethyl]-1-[2-[N-(t-butoxycarbonyl)-N-methylamino]ethyl]-3-[3-(4-pyridyl)propyl]urea], in the data set with TNF-α production, the inhibition in vivo at 10 mg/kg came out at 95.5%. For `O=C(NCCCc1ccncc1)N(CCC12CC3CC(CC(C3)C1)C2)OCc1ccccc1` [Compound No. 1-28, 1-[2-(1-Adamantyl)ethyl]-1-benzyloxy-3-[3-(4-pyridyl)propyl]urea], in the data set with TNF-α production, the inhibition in vivo at 10 mg/kg worked out at 90.4%. For the compound `CCCN(CCCC12CC3CC(CC(C3)C1)C2)C(=O)NCCCc1ccncc1` [Compound No. 1-35, 1-[3-(1-Adamantyl)propyl]-1-propyl-3-[3-(4-pyridyl)propyl]urea], the inhibition in vivo at 10 mg/kg with TNF-α production was found to be 82.5%. The same measure, in the same setting: for `Cc1nc(CN(CCC23CC4CC(CC(C4)C2)C3)C(=O)NCCCc2ccncc2)cs1` [Compound No. 1-37, 1-[2-(1-Adamantyl)ethyl]-1-(2-methylthiazol-4-yl)methyl-3-[3-(4-pyridyl)propyl]urea] the value was 84.3%; for `CCCCCN(CCCCC)C(=O)NCCCc1ccncc1` [Compound No. 1-38, 1,1-Dipentyl-3-[3-(4-pyridyl)propyl]urea], 92.3%. Still for that read-out and setting: for `CCCCCN(CCC1CCCCC1)C(=O)NCCCc1ccncc1` [Compound No. 1-44, 1-(2-Cyclohexylethyl)-1-pentyl-3-[3-(4-pyridyl)propyl]urea] the value was 93.7%. Take `CCCCCN(CCc1ccccc1)C(=O)NCCCc1ccncc1` [Compound No. 1-45, 1-Pentyl-1-phenethyl-3-[3-(4-pyridyl)propyl]urea]: the inhibition in vivo at 10 mg/kg in the data set on TNF-α production worked out at 91.1%. Take `CCCCCN(CCc1ccccn1)C(=O)NCCCc1ccncc1` [Compound No. 1-55, 1-Pentyl-1-[2-(2-pyridyl)ethyl]-3-[3-(4-pyridyl)propyl]urea]: the inhibition in vivo at 10 mg/kg in the data set with TNF-α production worked out at 78.1%. Take `CCCCCN(CCN(C)C(=O)OCc1ccccc1)C(=O)NCCCc1ccncc1` [Compound No. 1-78, [2-(N-Benzyloxycarbonyl-N-methylamino)ethyl]-1-pentyl-3-[3-(4-pyridyl)propyl]urea]: in the data set with TNF-α production, the “Inhibition rate (%) of TNF-α production” value came out at 61.5%. As to `C=CCCCCCCN(CCCCCCC=C)C(=O)NCCCc1ccncc1` [Compound No. 1-95, 1,1-Di(7-octenyl)-3-[3-(4-pyridyl)propyl]urea], the inhibition in vivo at 3 mg/kg in the data set on TNF-α production is 70.8%. Regarding `CCCCCN(CCC12CC3CC(CC(C3)C1)C2)C(=O)NC/C=C\c1ccncc1` [Compound No. 1-111, (Z)-1-[2-(1-Adamantyl)ethyl]-1-pentyl-3-[3-(4-pyridyl)-2-propenyl]urea], the inhibition in vivo at 3 mg/kg in the data set on TNF-α production came out at 85.1%.

As a reminder, the melting point is the temperature, or range, at which the solid turns liquid. In the case of `CCCCCN(CCC12CC3CC(CC(C3)C1)C2)C(=O)NCCNc1ccncc1` [Compound No. 1-126, 1-[2-(1-Adamantyl)ethyl]-1-pentyl-3-[2-(4-pyridylamino)ethyl]urea], the melting point was in the range of 133.9 to 134.5 °C.

`CCCN(CCCC12CC3CC(CC(C3)C1)C2)C(=O)NCc1ccncc1` [Compound No. 1-128, 1-[3-(1-Adamantyl)propyl]-1-propyl-3-(4-pyridyl)methylurea] showed a melting point of 96 to 98 °C. `CCN(CCCC12CC3CC(CC(C3)C1)C2)C(=O)NCCCc1ccncc1` [Compound No. 1-130, 1-[3-(1-Adamantyl)propyl]-1-ethyl-3-[3-(4-pyridyl)propyl]urea] came in with a melting point of 97.5 to 98.2 °C.

Consider `CCCN(CC(=O)NC12CC3CC(CC(C3)C1)C2)C(=O)NCCCc1ccncc1` [Compound No. 1-132, 1-(1-Adamantyl)aminocarbonylmethyl-1-propyl-3-[3-(4-pyridyl)propyl]urea], for which the melting point fell in the range of 132 to 132.5 °C. In turn, `CCCCCN(CCC12CC3CC(CC(C3)C1)C2)C(=O)NCC(C)(C)Cc1ccncc1` [Compound No. 1-135, 1-[2-(1-Adamantyl)ethyl]-3-[2,2-dimethyl-3-(4-pyridyl)propyl]-1-pentylurea] displayed a melting point of 82.5 to 84.9 °C. With `CCCN(CCC12CC3CC(CC(C3)C1)C2)C(=O)CCCCc1ccncc1` [Compound No. 2-1, 5-(4-Pyridyl)valeric acid N-[2-(1-adamantyl)ethyl]-N-propylamide], the inhibition in vivo at 10 mg/kg with TNF-α production is 91.5%. The same measure, in the same setting: the figure for `CCCCCN(CC12CC3CC(CC(C3)C1)C2)C(=O)CCCCc1ccncc1` [Compound No. 2-3, 5-(4-Pyridyl)valeric acid N-(1-adamantyl)methyl-N-pentylamide] is 51.8%. In the case of `CN(CCN(CCC12CC3CC(CC(C3)C1)C2)C(=O)CCCCc1ccncc1)C(=O)OC(C)(C)C` [Compound No. 2-7, 5-(4-Pyridyl)valeric acid N-[2-(1-adamantyl)ethyl]-N-[2-[N-(tbutoxycarbonyl)-N′-methylamino]ethyl]amide], in the data set with TNF-α production, the “Inhibition rate (%) of TNF-α production” value came out at 78.7%. Consider `CCCCCN(CCc1ccccc1)C(=O)CCCCc1ccncc1` [Compound No. 2-9, 5-(4-Pyridyl)valeric acid N-pentyl-N-phenethylamide], for which the inhibition in vivo at 3 mg/kg in the data set with TNF-α production was 84.5%. Turning to `CCCCCN(CCC1CCCCC1)C(=O)CCCCc1ccncc1` [Compound No. 2-11, 5-(4-Pyridyl)valeric acid N-(2-cyclohexylethyl)-NY-pentylamide], the “Inhibition rate (%) of TNF-α production” value in the data set on TNF-α production turned out to be 53.5%. As to `CCCCCN(CCC12CC3CC(CC(C3)C1)C2)C(=O)CCCCc1ccncc1` [Compound No. 2-14, 5-(4-Pyridyl)valeric acid N-[2-(1-adamantyl)ethyl]-N-pentylamide], the inhibition in vivo at 3 mg/kg with TNF-α production turned out to be 87.3%.

Turning to `CCCCCN(CCC12CC3CC(CC(C3)C1)C2)C(=O)CCSCc1ccncc1` [Compound No. 2-15, 3-(4-Pyridylmethylthio)propionic acid N-[2-(1-adamantyl)ethyl]-N-pentylamide], the inhibition in vivo at 3 mg/kg in the data set on TNF-α production stood at 68.1%. In the case of `OCCN(CCc1ccccc1)C(=S)NCCCc1ccncc1` [Compound No. 7-2, 1-(2-Hydroxyethyl)-1-phenethyl-3-[3-(4-pyridyl)propyl]thiourea], the melting point is 105.6 to 107.1 °C. In turn, `CN(CCN(CCC12CC3CC(CC(C3)C1)C2)C(=O)NCCCc1ccncc1)S(C)(=O)=O` [Compound No. 10-4, 1-[2-(1-Adamantyl)ethyl]-1-[2-[N-methyl-N-(methylsulfonyl)amino]ethyl]-3-[3-(4-pyridyl)propyl]urea] registered a melting point of 164.9 to 167.2 °C.

Turning to `CN(CCN(CCC12CC3CC(CC(C3)C1)C2)C(=O)NCCCc1ccncc1)C(=O)CC(C)(C)C` [Compound No. 10-6, 1-[2-(1-Adamantyl)ethyl]-1-[2-[N-(3,3-dimethylbutyryl)-N-methylamino]ethyl]-3-[3-(4-pyridyl)propyl]urea], the melting point lay in the range of 101.4 to 102.4 °C.

`CC(C)(C)OC(=O)NCCN(CCC12CC3CC(CC(C3)C1)C2)C(=O)NCCCc1ccncc1` [Compound No. 10-8, 1-[2-(1-Adamantyl)ethyl]-1-[2-[N-(t-butoxycarbonyl)amino]ethyl]-3-[3-(4-pyridyl)propyl]urea] displayed a melting point of 158 to 160.5 °C. Compound `CN(CCN(CCC12CC3CC(CC(C3)C1)C2)C(=O)NCCCc1ccncc1)C(=O)OC(C)(C)C(Cl)(Cl)Cl` [Compound No. 10-10, 1-[2-(1-Adamantyl)ethyl]-1-[2-[N-(1,1-dimethyl-2,2,2-trichloroethoxycarbonyl)-N-methylamino]ethyl]-3-[3-(4-pyridyl)propyl]urea] gave a melting point of 47 to 52 °C. Consider `CCCN(CCCC12CC3CC(CC(C3)C1)C2)C(=O)NCCCc1ccncc1.O=P(O)(O)O` [Compound No. 13-10, 1-[3-(1-Adamantyl)propyl]-1-propyl-3-[3-(4-pyridyl)propyl]urea phosphate], for which the melting point lay within 148 to 149 °C.

The record behind these values is patent US7923461B2, “TNF-α production inhibitors” (Santen Pharmaceutical Co., Ltd., priority 2000, dated 2011).
